The values below come from patent US20100099731A1, “Use of Endothelial Interrupters in the Treatment of Neurodegenerative Diseases” (Texas Tech University System, priority 2008, published 2010).

“Also recorded” adds a separate entry of the source.

In data set [1] the test system is Rats. As to the kind of experiment: Intracerebroventricular thrombin infusion in rats, apolipoprotein-E levels. The following applies: thrombin 100 nM, 0.25 microl/hr, 28 days, i.c.v.; vs vehicle, p<0.001. In kind it is in vivo, rat. From the text: Chronic thrombin exposure results in an increase in apolipoprotein-E levels. Studies have shown that individuals with both a history of traumatic brain injury and inheritance of apolipoprotein E-4 (ApoE4) allele are associated with a poor neurologic outcome and an increased risk for Alzheimer's disease. We assessed the hypothesis that thrombin released during brain injury causes an increase in apolipoprotein-E levels and such increase in the levels of apolipoprotein-E4 isoform may have amyloidogenic effects. Rats received either thrombin (100 nM, 0.25 microl/hr, 28 days) or vehicle via intracerebroventricular infusion. […] Such increase in Apolipoprotein-E4 isoform facilitates beta-amyloid deposition and cognitive deficits (Reference, item # 9).

In data set [2] the test system is cultured brain endothelial cells. As to the kind of experiment: HIF1-α expression in cultured brain endothelial cells. In kind it is cell-based. From the text: Thrombin and inflammatory proteins are elevated in Alzheimer's disease microvessels: Implications for disease pathogenesis. […] The objective of this study is to determine whether levels of neurotoxic (thrombin) and inflammatory proteins (IL-8; integrins αvβ3 and αvβ5) are altered in microvessels isolated from AD patients compared to levels in vessels obtained from non-demented age-matched controls. We also evaluate expression, in AD and control microvessels, of the transcription factor hypoxiainducible factor 1-α (HIF1-α), which regulates pro-inflammatory gene expression, and the regulation of HIF1-α expression by thrombin in cultured brain endothelial cells.

The test system is the same in data set [3]. Briefly: TIMP expression in cultured brain endothelial cells. In kind it is cell-based. An excerpt:
Angiogenic proteins are expressed by brain blood vessels in AD. Data are emerging to support the idea that mediators of angiogenesis are found in the AD brain. The objective of this study is to compare the expression of the angiogenic mediator's vascular endothelial growth factor (VEGF), angiopoietin, and matrix metalloproteinases (MMPs) in the microcirculation of AD patients and age-matched controls. […] AD-derived microvessels also release higher levels of MMP-2 and MMP-9 compared to controls. […] In this regard we find high levels of the tissue inhibitor of matrix metalloproteinases-1 (TIMP-1) in AD, but not control vessels.

In data set [4] the test system is Rat neuronal cortical cell cultures. The following applies: thrombin 100 nM or SNP 10 μM, 24 h.
For data set [5], the system named is Rats. Briefly: Intracerebroventricular thrombin infusion in rats, radial eight-arm maze and neuropathology. In kind it is in vivo, rat. As to the method: Thrombin, a mediator of neurotoxicity and memory impairment. Thrombin has been found in neuritic plaques in AD. Also, traumatic brain injury, where neurons are exposed to high thrombin levels is associated with an increased incidence of AD. Our objective was to determine the effects of thrombin administered in vivo on cognitive function and neuropathology. Rats were trained using a radial eight-arm maze and then thrombin (25 or 100 nM, […], 28 days) or vehicle was delivered via intra cerebroventricular infusion. […] Thrombin-induced changes in cognitive function and ventricular enlargement were inhibited by hirudin.

Data set [6] relates to cultured brain endothelial cells. As to the kind of experiment: IL-1β and TNFα expression in brain endothelial cells treated with TGF-β, ELISA and western blot. In kind it is cell-based. The following applies: vs untreated endothelial cells. An excerpt: Cerebrovascular TGF-β contributes to inflammation in the AD brain. TGF-β plays a central role in the response of the brain to injury and is increased in the brain in AD. In this study, we determined whether expression of TGF-β was abnormal in the microvasculature in AD and whether TGF-β affected vascular production of pro-inflammatory cytokines, IL-1β and TNFα. Results from western blot analysis and ELISA indicated a higher level of TGF-β in AD vessels compared to controls. To determine whether TGF-β affects vascular release of inflammatory factors, cultured brain endothelial cells were treated with TGF-β and levels of IL-1β and TNFα determined. […] Studies have shown that TGF-β mediated signaling is critical to controlling the “angiogenic switch”.

Data set [7] concerns Rats. Briefly: Infusion of human apolipoprotein-E4 into rats. In kind it is in vivo, rat. The following applies: 0.6 ng/hr, i.c.v., 56 days.
Data set [8] deals with Endothelial cells. Briefly: Menadione-induced MMP-9 release from endothelial cells, indirect ELISA. In kind it is cell-based. Background: An ELISA detects its analyte on a solid surface through an enzyme-linked reagent.
Data set [9] deals with AD transgenic mouse APPSWE 2576. As to the kind of experiment: Radial arm maze, AD transgenic mice treated with Sunitinib malate. In kind it is in vivo. The following applies: Sunitinib malate 40 mg/kg daily in diet; vs untreated AD mice receiving vehicle; p<0.05.
For data set [10], the system named is Endothelial cells. Briefly: Menadione-mediated TNF-α release from endothelial cells, indirect ELISA. In kind it is cell-based. The following applies: 500 nM Sunitinib malate 4 h prior to (Pre), simultaneously (Co) or after (Post) 4 h menadione 25 μM.
The subject of data set [11] is brain-derived endothelial cells (EC150). As to the kind of experiment: MMP-9 release from brain endothelial cells, indirect ELISA. The following applies: 0-500 nM Sunitinib malate, 4 h; p<0.001 vs cells without drug. In kind it is cell-based.
The conditions of data set [12]: approved treatments for AD; cited from earlier work.
A further data set has as its target thrombin (Homo sapiens, UniProt P00734). Briefly: ApoE4 fragment generation by endothelial cell conditioned media, western blot. In kind it is biochemical. The following applies: conditioned medium incubated with apoE4 for 24 h. On the procedure: Injured endothelial cells release thrombin and generate neurotoxic apolipoprotein E fragments. The objective of this study was to determine if injured brain endothelial cells could be a source of thrombin and neurotoxic apoE fragments. Brain endothelial cells were injured by oxidant and/or inflammatory stress. This was accomplished by incubating cultured endothelial cells with either, sodium nitroprusside (SNP), inflammatory cocktail (LPS, […], IL-6, IFN-γ, TNFα) or both for 24 h. The conditioned medium was then (a) analyzed for thrombin using a chromogenic thrombin activity assay, (b) incubated with apoE4 for 24 h and then analyzed by western blot for detection of apoE4 fragments, or (c) incubated with apoE4 and added to neuronal cultures for 24 h. […] This pattern was consistent with that observed using purified thrombin and was inhibited by the thrombin inhibitor hiruidin.

Data set [13] in a line: In vivo cognition with acetaminophen. The following applies: in vivo work.
Data set [14] relates to rat brain endothelial cells. As to the kind of experiment: Cell viability (MTT) of brain endothelial cells challenged with menadione. The following applies: acetaminophen pretreatment, then 25 μM menadione 2-3 h; p<0.001 vs cells without acetaminophen.
Protocol: Cell viability was determined with MTT assay. Number of viable cells in untreated cells (control) was defined as 100%. Data are mean±SD of 3 separate experiments.
Where [15] appears, read: 100 nM thrombin, 0.25 μg/h, 28 days, intra cerebroventricular infusion.
Setting [16] is: rats, thrombin intra cerebroventricular infusion.

Consider thrombin, for which the “apolipoprotein-E levels in hippocampus” value in the data set on Rats [1] is reported as “increased apolipoprotein-E levels in hippocampus”. In addition, the HIF1-alpha expression entry in [2] is “increased expression of HIF1-alpha”. Besides, the TIMP-1 expression entry in [3] is on record as “up regulation of TIMP-1”. For the same molecule, in [4], the “cyclin D1 mRNA expression” value was “increase in cyclin D1 expression” and the “neuronal apoptosis (nucleosome ELISA)” value is recorded as “evoke neuronal cell death”. In the data set on Rats [5] (setting [15]), the cognitive function entry was “cognitive impairments including deficits in reference memory and an increase in task latency”; the neuropathology entry was “enlargement of cerebral ventricles, an increased number of TUNEL-positive cells, astrogliosis, and an increase in the immunoreactivity for phosphorylated neurofilament, and apolipoprotein-E fragments”.

Consider TGF-β, for which, in [6], the “endothelial expression of IL-1β and TNFα” value is given as “robust endothelial expression of these factors”.

Consider “ApoE4: human apolipoprotein-E4 isoform infused i.c.v. into rats”, for which, in the data set on Rats [7], the “beta-amyloid deposition and GFAP-positive astrocytes” value was “beta-amyloid deposition and increased the number of GFAP-positive astrocytes”; the spatial memory entry is on record as “significant spatial memory deficits”.

In the case of `CC1=CC(=O)c2ccccc2C1=O` [menadione], in the data set with Endothelial cells [8] (brain endothelial cells exposed to menadione), the “release of MMP-9 and TNFα” value was “increased release of both MMP-9 and the inflammatory cytokine TNFα”.

Turning to `CCN(CC)CCNC(=O)c1c(C)[nH]c(/C=C2\C(=O)Nc3ccc(F)cc32)c1C` [Sunitinib malate, Butanedioic acid, hydroxy-, (2S)-, compound with N[2-(diethylamino)ethyl]-5-[(Z)-(5-fluoro-1,2-dihydro-2-oxo-3H-indol-3-ylidine)methyl]-2,4-dimethyl-1H-pyrrole-3-carboxamide (1:1)], the “cognitive performance: total number of arm entries to complete the 8 arm radial arm maze” value in data set [9] is “progressively require fewer arm entries to complete an 8 arm radial arm maze; also recorded: perform significantly (p<0.05) better than AD mice not receiving the drug”. Further, the “menadione-mediated release of TNF-α” value with Endothelial cells [10] was “decreased release of both MMP-9 (FIG. 4) and TNFα; also recorded: decreased menadione-mediated release of TNF-α”. In addition, in data set [11], the “release of matrix metalloproteinase-9 (MMP-9)” value was “significantly decreased release of matrix metalloproteinase-9 (MMP-9)”. For the same molecule, the “menadione-induced release of MMP-9” value in the data set on Endothelial cells [8] (500 nM Sunitinib malate 4 h prior to (Pre), simultaneously (Co) or after (Post) 4 h menadione 25 μM) is listed as “decreased release of both MMP-9; also recorded: significantly decreased release of MMP-9”.

`CC12CC3CC(C)(C1)CC(N)(C3)C2` [Memantine]: the “Side Effects” value in data set [12] is recorded as “Headache, constipation”.

With hirudin, at thrombin, the “generation of apoE4 fragments (20-29 kDa) by endothelial cell conditioned media” value is reported as “inhibited”. In addition, in the data set on Rats [5] (setting [16]), the “thrombin-induced changes in cognitive function” value is listed as “inhibited” and the thrombin-induced ventricular enlargement result is on record as “inhibited”.

Take `CC(=O)Nc1ccc(O)cc1` [acetaminophen, 4′-hydroxyacetanilide]: in data set [13], the cognition entry is “improved cognition”. The “cell survival (MTT)” value in data set [14] is “significant increase in cell survival; also recorded: Cell survival increases significantly”.
